Laboratory results reported in paper PMC6888004 (International Journal of Molecular Sciences, 2019).
Like-named read-outs stand apart in the source and are kept apart here.

Columns and labels:
[1] = Stability in EMEM cell culture medium at 37 °C (HPLC-UV); assay type: in vitro ADME; conditions: for stability in cell culture medium: EMEM, 37 °C, up to 72 h
Description: Stock solutions of compounds in DMSO were diluted to 10 µM in complemented EMEM (Lonza). Samples were incubated for 2, 6, 24, and 72 h at 37 °C. After the incubation, acetonitrile (VWR, cat. no.: 83639.320) was added to the solutions (1:1 ratio, to achieve 50% acetonitrile content). The samples were vortexed and centrifuged (13,000× g, 10 min). Supernatants were measured by HPLC-UV. HPLC method and chromatograms are available in the Supplementary Information. Stability was calculated using the external standard method. Decay curves were generated and half-life was calculated by GraphPad Prism 5.02 software.

[2] = system: primary human skin fibroblast cells; experiment: CellTiter-Glo cell viability assay on primary skin fibroblast cells; assay type: cell-based; conditions: GnRHR-negative cells, 72 h treatment, read-out: IC50, viability inhibition on primary human skin fibroblast cells
Description: Primary human skin fibroblast cells (fibroblast cells) were gifted by the Institute of Genomic Medicine and Rare Disorders, Semmelweis University (Budapest, Hungary). Fibroblast cells were cultured in Dulbecco’s modified Eagle’s medium (DMEM) (Thermo Fisher Scientific, cat. no.: 41965039) supplemented with 10% FBS (Thermo Fisher Scientific), 1% penicillin–streptomycin (Thermo Fisher Scientific, cat. no.: 15070063) and 1% MEM Non-Essential Amino Acids Solution (Thermo Fisher Scientific, cat. no.: 11140035). Cell cultures were grown in vitro at 37 °C, 95% air and 5% CO2 atmosphere.
(§1) Effects of the synthesized compounds on EBC-1 and fibroblast cell viability was measured via CellTiter-Glo® luminescent cell viability assay (Promega, Madison, WI, USA) according to the manufacturer’s instructions. Briefly, cells were plated at 1000 cells/well onto a flat-bottomed, white 96 well plate (BRANDplates, cat. no.: 781965). After 24 h, cells were treated for 72 h with either the desired 4-fold serial diluted compound concentrations or vehicle (0.2% DMSO) control. After the treatment, the luminescence signal was recorded using a microplate reader (BioTek Synergy 2 Multi-Mode Reader, BioTek, Winooski, VT, USA). Dose–response curves (using a non-linear regression model) were generated and IC50 values were determined using Graph Pad Prism 5.02 software (GraphPad Software, San Diego, CA, USA).

c-Met = c-Met phosphorylation in EBC-1 cells by western blot; assay type: cell-based; conditions: 6 h
Description: To analyze the effect of the compounds on c-Met phosphorylation, EBC-1 cells were seeded in six well plates and grown to 90% confluence. […] Cells were incubated with the compounds for 6 h at 37 °C in a CO2 incubator. After the incubation, western blot analysis was performed. To investigate GnRH-R protein level, cells were seeded in six well plates and grown to 90% confluence, then western blot analysis was applied.
Bands were visualized via Enhanced Chemiluminescence detection system (Western Lightning ECL Pro, PerkinElmer, Waltham, MA, USA, cat. no.: NEL122001EA).

recombinant c-Met kinase = molecular target: T1, recombinant c-Met kinase (Homo sapiens, UniProt P08581); experiment: In vitro inhibition of recombinant c-Met kinase (ADP-Glo); assay type: biochemical; conditions: recombinant kinase assay, ATP 3.1 µM
T1 construct: purchased ProQinase 0171-0000-1
Description: Reaction buffer was prepared according to ProQinase’s recommendation [60 mM HEPES, 3 mM MgCl2, 3 mM MnCl2, 3 µM Na3VO4, 1.2 mM DTT (dithiothreitol), and 50 µg/mL PEG20,000, (reagents were obtained from Merck Millipore)]. Enzyme activity was assayed in 384 well, low-volume white microtiter plates (Corning®, Merck Millipore, cat. no.: CLS4513-50EA). Compounds were preincubated with c-Met kinase for 30 min at room temperature and reactions were started by adding the substrate–ATP mixture. Reaction time was 60 min at room temperature. Enzyme reaction was stopped using ADP-Glo™ Kinase Assay (Promega, cat. no.: V6930) according to the manufacturer’s instructions (40 min incubation with ADP-Glo™ Reagent, 30 min incubation with Kinase detection reagent at 25 °C). All measurements were performed using a Synergy 2 Multi-Mode Reader (BioTek, Winooski, VT, USA). Raw enzyme activity values were converted to relative activity data using positive and negative controls.

EBC-1 NSCLC cells = experiment: CellTiter-Glo cell viability assay on EBC-1 cells; assay type: cell-based; conditions: for IC50: CellTiter-Glo, 72 h treatment, read-out: IC50, viability inhibition on EBC-1 cells
Description: EBC-1 cell line was obtained from the Japanese Collection of Research Bioresources Cell Bank (JCRB, Solana Beach, CA 92075 USA) and cultured in Eagle’s minimum essential medium (EMEM) (Lonza, Basel, Switzerland, cat. no.: BE12-611F,) supplemented with 1% MycoZap (Lonza, cat. no.: VZA-2012) and 10% fetal bovine serum (FBS) (Thermo Fisher Scientific, Waltham, MA, USA, cat. no.: 10500-064).
as §1

human pituitary GnRHR = molecular target: T2, human pituitary GnRHR (Homo sapiens, UniProt P30968); experiment: Radioligand competition assay, [125I]-[D-Trp6]-GnRH-I displacement, human pituitary membranes; conditions: inhibition of [125I]-[D-Trp6]-GnRH-I binding to membranes
T2 construct: Normal human pituitary (anterior lobe) tissue was collected at autopsy; from tissue; host or cells: normal human pituitary (anterior lobe), autopsy tissue, membranes
T2 sequence (P30968 1-328): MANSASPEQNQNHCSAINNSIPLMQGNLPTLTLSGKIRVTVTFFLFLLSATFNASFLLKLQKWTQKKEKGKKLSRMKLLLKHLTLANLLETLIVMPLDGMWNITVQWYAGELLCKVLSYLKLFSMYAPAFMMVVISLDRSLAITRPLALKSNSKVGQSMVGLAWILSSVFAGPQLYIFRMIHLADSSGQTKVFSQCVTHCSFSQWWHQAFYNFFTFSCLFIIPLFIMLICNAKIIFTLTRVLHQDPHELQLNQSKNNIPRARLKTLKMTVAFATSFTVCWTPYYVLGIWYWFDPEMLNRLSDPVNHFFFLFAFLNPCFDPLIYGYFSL
Description: (§2) The collection and use of the tissue samples for our studies were approved by the local Institutional Ethics Committee. Normal human pituitary (anterior lobe) tissue was collected at autopsy and the human prostate cancer specimen was obtained from a patient at the time of initial surgical treatment. The ligand competition assay was performed as described previously.

prostate cancer GnRHR = molecular target: T3, prostate cancer GnRHR (Homo sapiens, UniProt P30968); experiment: Radioligand competition assay, [125I]-[D-Trp6]-GnRH-I displacement, human prostate cancer membranes; conditions: inhibition of [125I]-[D-Trp6]-GnRH-I binding to membranes
T3 construct: the human prostate cancer specimen was obtained from a patient at the time of initial surgical treatment; from tissue; host or cells: human prostate cancer surgical specimen, membranes
T3 sequence (P30968 1-328): T2 sequence (P30968 1-328)
Description: as §2

[3] = pH-dependent artificial membrane permeability assay (PAMPA); assay type: in vitro ADME
Description: An artificial-membrane-based system (BD Gentest™ Pre-Coated PAMPA plate, Corning, cat. no.: 353015) was used to determine the pH-dependent membrane permeability of the compounds. In this method, the protocol provided by the manufacturer was followed with minor modifications. Four different pH values were applied per compound. […] Stock solutions of compounds in DMSO were diluted to 100 µM in each PBS. PBS solutions were loaded into the donor wells, but the acceptor wells were filled with physiological PBS (pH = 7.4). The system was gently shaken (BioSan Thermo-Shaker PST-60HL) for 5 h at 25 °C. […] Calculation formula and the calculated data are available in the Supplementary Information, Section S4. page 11: S4. PAMPA Calculation formula: −ln(1 − CaCe) Pe = 1 1 A ∗ (Vd + Va) ∗ t Ce = (Cd ∗ Vd + Ca∗ Va)/(Vd + Va) R = 1 − Cd ∗ Vd + Ca∗ Va C0 ∗ Vd Pe = permeability (cm/s) R = mass retention (percentage loss of compound due to non-specific binding to the plastic surfaces during the permeation assay) A = membrane area (cm2) c0 = initial donor concentration ca = final acceptor concentration cd = final donor concentration ce = equilibrium concentration t = incubation time (sec) Va = acceptor volume (mL) Vd = donor volume (mL)

EBC-1 cells = experiment: Galectin puncta assay for lysosomal membrane permeabilization; assay type: cell-based; conditions: 8 h
Description: EBC-1 cells were seeded on eight well Ibidi® μ-Slide microscopic slides (2 × 10^4 cells/well) and allowed to adhere for 48 h. […] Untreated (0.2% DMSO in EMEM) cells were used as a negative control. Cells were incubated with the compounds for 8 h at 37 °C in a CO2 incubator. Cells were fixed with 4% paraformaldehyde for 10 min and washed twice with PBS (Lonza). Cells were permeabilized with 0.1% (v/v) Triton X-100 PBS solution for 10 min. After blocking (5% v/v BSA in PBS), cells were incubated with anti-galectin 3 (Merck, cat. no.: SAB4501746, dilution: 1:100) and anti-galectin-1 (Santa Cruz Biotechnology, cat. no.: sc-166618, dilution: 1:100) primary antibodies overnight at 25 °C, followed by Alexa-Fluor-488-conjugated (Jackson ImmunoResearch., cat. no.: 111-545-003, dilution: 1:500) and Alexa-Fluor-594-conjugated (Jackson ImmunoResearch, cat. no.: 115-585-003, dilution: 1:250) secondary antibodies for 1 h at 25 °C. DRAQ5 (10 µM) was added to the cells for 15 min. Cells were washed three times with PBS and a few drops of mounting media (Merck Millipore) were added. Images of cells were acquired with a confocal laser microscope (Zeiss Confocal LSM 710). [Objective: Plan-Apochromat 63x/1.40 Oil DIC M27. Pinhole: 1.01 AU. Laser wavelength: 488 nm, 543 nm and 633 nm. Detection wavelength: 504–539 nm; 602–651 nm; 694–758 nm)].

T1 sequence (P08581 25-1390): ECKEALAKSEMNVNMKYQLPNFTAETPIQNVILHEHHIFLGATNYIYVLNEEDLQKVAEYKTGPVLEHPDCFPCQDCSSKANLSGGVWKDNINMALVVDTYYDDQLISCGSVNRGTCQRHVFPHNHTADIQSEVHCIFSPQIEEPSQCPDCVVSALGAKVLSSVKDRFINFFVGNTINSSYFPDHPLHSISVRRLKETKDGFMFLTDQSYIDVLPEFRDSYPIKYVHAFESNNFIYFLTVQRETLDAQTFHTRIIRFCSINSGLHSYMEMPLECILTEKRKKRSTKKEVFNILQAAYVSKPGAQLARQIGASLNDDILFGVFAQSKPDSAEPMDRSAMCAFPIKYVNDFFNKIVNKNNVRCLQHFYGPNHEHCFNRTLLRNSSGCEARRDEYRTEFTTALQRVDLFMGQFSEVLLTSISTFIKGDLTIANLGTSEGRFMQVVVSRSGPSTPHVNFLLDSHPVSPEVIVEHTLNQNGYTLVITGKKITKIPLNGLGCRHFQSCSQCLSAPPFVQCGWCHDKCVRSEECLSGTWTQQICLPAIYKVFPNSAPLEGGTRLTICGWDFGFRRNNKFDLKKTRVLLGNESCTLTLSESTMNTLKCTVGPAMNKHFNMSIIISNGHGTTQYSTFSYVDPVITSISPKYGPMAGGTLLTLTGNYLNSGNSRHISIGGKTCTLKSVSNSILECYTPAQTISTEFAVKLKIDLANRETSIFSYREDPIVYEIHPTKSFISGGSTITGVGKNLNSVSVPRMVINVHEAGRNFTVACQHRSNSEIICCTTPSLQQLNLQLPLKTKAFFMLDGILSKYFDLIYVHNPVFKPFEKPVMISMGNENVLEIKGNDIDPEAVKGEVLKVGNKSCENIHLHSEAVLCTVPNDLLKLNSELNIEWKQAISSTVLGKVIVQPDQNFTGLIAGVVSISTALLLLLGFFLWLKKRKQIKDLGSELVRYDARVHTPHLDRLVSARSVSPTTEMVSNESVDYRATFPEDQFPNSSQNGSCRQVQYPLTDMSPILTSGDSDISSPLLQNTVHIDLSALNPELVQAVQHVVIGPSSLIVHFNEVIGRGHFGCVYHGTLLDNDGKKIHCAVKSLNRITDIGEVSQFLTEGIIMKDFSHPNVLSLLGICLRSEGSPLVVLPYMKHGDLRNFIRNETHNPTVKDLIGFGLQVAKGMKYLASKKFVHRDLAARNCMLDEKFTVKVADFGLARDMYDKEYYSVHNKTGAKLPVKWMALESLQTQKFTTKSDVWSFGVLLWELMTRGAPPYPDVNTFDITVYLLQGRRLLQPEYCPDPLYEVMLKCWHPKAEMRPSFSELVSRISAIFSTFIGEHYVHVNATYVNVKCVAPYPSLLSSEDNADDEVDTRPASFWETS

| SMILES | stability in cell culture medium [1] | inhibition of c-Met phosphorylation in EBC-1 cells (c-Met; 100 nM) | IC50 (recombinant c-Met kinase) [nM] | IC50 (human pituitary GnRHR) [nM] | IC50 (prostate cancer GnRHR) [nM] | IC50 ([2]; Homo sapiens, Skin fibroblast) [nM] | IC50 (EBC-1 NSCLC cells; Homo sapiens, EBC-1) [nM] | also measured |
| --- | --- | --- | --- | --- | --- | --- | --- | --- |
| CC(C)C[C@H](NC(=O)[C@@H](CCCCN)NC(=O)[C@H](Cc1ccc(O)cc1)NC(=O)[C@H](CO)NC(=O)[C@H](Cc1c[nH]c2ccccc12)NC(=O)[C@H](Cc1cnc[nH]1)NC(=O)[C@@H]1CCC(=O)N1)C(=O)N[C@@H](CCCNC(=N)N)C(=O)N1CCC[C@H]1C(=O)NCC(N)=O [[D-Lys^6]–GnRH-I, reference compound] | stable |  |  |  |  |  |  |  |
| CC(C)C[C@H](NC(=O)[C@@H](CCCCNC(=O)CCCC(=O)OCCN1CCC(n2cc(-c3cnc(N)c(OC(C)c4c(Cl)ccc(F)c4Cl)c3)cn2)CC1)NC(=O)[C@H](Cc1ccc(O)cc1)NC(=O)[C@H](CO)NC(=O)[C@H](Cc1c[nH]c2ccccc12)NC(=O)[C@H](Cc1c[nH]cn1)NC(=O)[C@@H]1CCC(=O)N1)C(=O)N[C@@H](CCCNC(=N)N)C(=O)N1CCC[C@H]1C(=O)NCC(N)=O (stereo partly drawn) [[D-Lys^6(MJ55*)]–GnRH-I] |  | blocked c-Met phosphorylation | ~147 | 21.7 ± 1.4 | 29.7 ± 3.1 |  |  | IC50 [2]: 3000 nM; half-life ([1]; half-life of the ester bond / conjugate in EMEM): ~8 h; IC50 (EBC-1 NSCLC cells): 90 nM |
| C[C@@H](Oc1cc(-c2cnn(C3CCNCC3)c2)cnc1N)c1c(Cl)ccc(F)c1Cl [crizotinib*] |  |  |  |  |  | 2600 | 28 |  |
| Cn1c(=O)c2c(ncn2C)n(C)c1=O [caffeine, reference compound] |  |  |  |  |  |  |  | PAMPA permeability over the investigated pH range ([3]; PAMPA): remained constant |
| CC(Oc1cc(-c2cnn(C3CCN(CCO)CC3)c2)cnc1N)c1c(Cl)ccc(F)c1Cl (centres unmarked) [MJ55*] | stable | completely inhibited | 39 |  |  | 2600 | 23 | PAMPA permeability ([3]; early endosome-/lysosome-like pH (pH = 6.0 and 4.8)): near zero |
| CC(C)C[C@H](NC(=O)[C@@H](CCCCNC(=O)CCCC(=O)N1CCC(n2cc(-c3cnc(N)c(OC(C)c4c(Cl)ccc(F)c4Cl)c3)cn2)CC1)NC(=O)[C@H](Cc1ccc(O)cc1)NC(=O)[C@H](CO)NC(=O)[C@H](Cc1c[nH]c2ccccc12)NC(=O)[C@H](Cc1c[nH]cn1)NC(=O)[C@@H]1CCC(=O)N1)C(=O)N[C@@H](CCCNC(=N)N)C(=O)N1CCC[C@H]1C(=O)NCC(N)=O (mixture of isomers) [[D-Lys^6(crizotinib*)]–GnRH-I] |  | no significant inhibitory effect | 163 | 34.6 ± 4.2 | 39.5 ± 1.7 |  |  | inhibition of c-Met phosphorylation in EBC-1 cells (c-Met; 1 µM): moderate; inhibition of c-Met phosphorylation in EBC-1 cells (c-Met; 10 µM): abolished; PAMPA membrane permeability ([3]; PAMPA, pH 4.8): not to be membrane-permeable; viability inhibition effect on EBC-1 cells (EBC-1 NSCLC cells; highest 10 µM concentration): only a moderate effect; viability inhibition effect on EBC-1 cells (EBC-1 NSCLC cells; submicromolar range): did not show any significant effect; galectin puncta formation (EBC-1 cells; 0.1 µM): negligable; galectin puncta formation (EBC-1 cells; 1 µM): clearly detectable; galectin puncta formation (EBC-1 cells; 10 µM and 100 µM): more and more significant |
